Measurements from patent US20160082036A1, “HYDROXYALKYL STARCH FOR THE TREATMENT OF CANCERS BY REDUCTION OF TUMOR GROWTH RATES” (Fresenius Kabi Deutschland GmbH, priority 2012, published 2016).

Columns and labels:
[1] = tested on: human breast cell carcinoma line MT-3; assay: Example 1: MT-3 xenograft tumor growth after single i.v. injection; format: in vivo
Description: Summary: Mice were either treated with a single i.v. injection of docetaxel (Taxotere®) at a dose of 25 mg/kg or with the plasma expander Voluven® (20 ml/kg) or with “HES 100/1.0” (approx. 740 mg/kg) dissolved in saline to determine tumor growth and body weight over the course of the experiment.
Docetaxel (available under the name Taxotere®) was obtained from Sanofi-Aventis Deutschland GmbH, (Lot CHB D9C895; Berlin, Germany) and was stored in the dark at −20° C. until use. […] “HES 100/1.0” (as specified in table 2 above) was dissolved in saline.
The final solution of docetaxel was prepared immediately before injection by mixing an appropriate volume of the original stock solution provided by Sanofi (20 mg/ml) with saline (0.9% NaCl, B. Braun Melsungen AG, Melsungen, Germany) as indicated in table 4 below. Saline was mixed with absolute ethanol to obtain an approx. 6.25% solution, the original vehicle of Taxotere®. Voluven® was used in the original formulation described above.
(§1) Adult female NMRI:nu/nu mice (TACONIC Europe, Lille Skensved, Denmark) bred in the own (EPO) colony were used throughout the study.
The MT-3 cell line was used for subcutaneous (s.c.) xenotransplantation in immune deficient female NMRI:nu/nu mice. […]
On study day 0 each 5×10^6 tumor cells were transplanted s.c. into the flank of each mouse. The animals were monitored for tumor growth and when tumors were palpable, generally between day 7 and day 10 after transplantation, mice were randomised into the treatment groups. […]
Individual tumor diameters were measured two times weekly with a calliper. Tumor volumes were calculated according to V=(length×(width)^2)/2. […] At each measurement day the median and mean tumor volumes per group and also the treated to control (T/C RTV) values in percent were calculated. […]

[2] = tested on: human breast cell carcinoma line MT-3; assay: Example 2: MT-3 xenograft tumor growth after single i.v. injection; format: in vivo
Description: (§2) Summary: Mice were either treated with a single i.v. injection of docetaxel (Taxotere®) at a dose of 25 mg/kg or with the plasma expander Voluven® (20 ml/kg) or with HES 100/1.0 (approx. 740 mg/kg) dissolved in saline/EtOH to determine tumor growth and body weight over the course of the experiment.
Docetaxel (available under the name Taxotere®) was obtained from Sanofi-Aventis Deutschland GmbH, (Lot CHB D9C895; Berlin, Germany) and was stored in the dark at −20° C. until use. […] HES 100/1.0 (as specified in table 2 above) was dissolved in saline/EtOH.
The final solution of docetaxel was prepared immediately before injection by mixing an appropriate volume of the original stock solution provided by Sanofi (20 mg/ml) with saline (0.9% NaCl, B. Braun Melsungen AG, Melsungen, Germany) as indicated in the table 6 below. Saline was mixed with absolute ethanol to obtain an approx. 6.25% solution, the original vehicle of Taxotere®. Voluven® was used in the original formulation described above.
as §1
The MT-3 cell line was used for subcutaneous (s.c.) xenotransplantation in immune deficient female NMRI:nu/nu mice. The MT-3 breast carcinoma cell line was obtained from the tumor bank of the National Cancer Institute of the former USSR, WONZ, Moscow (Naundorf H. Rewasowa E. Fichtner I et al. Characterization of two human mammary carcinomas, MT-1 and MT-3, suitable for in vivo testing of ether lipids and their derivatives. Breast Cancer Res Treat. 1992; 23:87-95).
The cells are cryo-preserved within the EPO tumor bank. Cells were thawed, expanded by in vitro culture and transplanted s.c. as cell suspension (5×10^6 tumor cells/mouse in 200 μl).
On study day 0 each 5×10^6 tumor cells were transplanted s.c. into the flank of each mouse. The animals were monitored for tumor growth and when tumors were palpable, about day 7 after inoculation, mice were randomised into the treatment groups.
(§3) The application volume was 10 ml/kg (approx. 200 μl/20 g mouse) mouse body weight for vehicle, HES 100/1.0 and docetaxel and 20 ml/kg for Voluven®. The route of administration was by intravenous (i.v.) injection into the tail vein.
Individual tumor diameters were measured two times weekly with a calliper. Tumor volumes were calculated according to V=(length×(width)^2)/2. For calculation of the relative tumor volume (RTV) the tumor volumes at each measurement day were related to the day of first treatment. At each measurement day the median and mean tumor volumes per group and also the treated to control (T/C RTV) values in percent were calculated.
Mice were sacrificed when tumors reached a mean size above 1 cm^3 per group. On the day of necropsy mice were sacrificed by cervical dislocation and inspected for gross organ changes.
(§4) Statistical evaluation of was performed with the U-test of Mann and Whitney using the Windows program […] 6. A significance level of p<0.05 was used.

[3] = Example 2: body weight and blood parameters of MT-3 tumor-bearing mice; format: in vivo, NMRI:nu/nu mice
Description: as §2, §1, §3
Individual body weights of mice were determined two times weekly and mean body weight per treatment group.
Blood samples were drawn from the retro-orbital sinus under iso-flurane anaesthesia three days after the treatment. Blood samples of 50-100 μl were taken into tubes prepared with EDTA for haematological parameters from a subset of each group (generally 30-50%). The following parameters were determined: total leucocyte count (WBC), erythrocyte count (RBC), haemoglobin (HGB), haematocrit (HCT), mean corpuscular volume (MCV), mean corpuscular haemoglobin (MCH), mean corpuscular haemoglobin concentration (MCHC) and platelet count (PLT) using a Coulter Counter instrument.
as §4

[4] = single i.v. dose at day 7 after inoculation, MT-3 s.c. in NMRI:nu/nu mice, in cm3 (unit assumed)
[5] = blood drawn three days after single i.v. treatment

SMILES: CC(=O)O[C@@]12CO[C@@H]1C[C@H](O)[C@@]1(C)C(=O)[C@H](O)C3=C(C)[C@@H](OC(=O)[C@H](O)[C@@H](NC(=O)OC(C)(C)C)c4ccccc4)C[C@@](O)([C@@H](OC(=O)c4ccccc4)[C@H]21)C3(C)C [Docetaxel]
- Tumor volume (mean) at day 34 [1, 4]: 0.930 ± 0.395
- Tumor volume (mean) nadir [1, 4]: 0.072 ± 0.047
- inhibition of tumor growth (in words) ([1]; single i.v. treatment, compared to control group, FIG. 4): significant inhibition of tumor growth
- tumor size at day 8 ([2]; day 8 after inoculation (day of dosing)): 0.0866 cm^3
- Tumor volume (mean) cm^3/day 25 ([2]; single i.v. dose at day 8 after inoculation): 0.343 cm^3
- tumor size at day 10 ([2]; single i.v. dose day 8): 0.1046 cm^3
- tumor size at day 15 ([2]; single i.v. dose day 8): 0.1228 cm^3
- tumor size at day 18 ([2]; single i.v. dose day 8): 0.1995 cm^3
- tumor size at day 22 ([2]; single i.v. dose day 8): 0.2465 cm^3
- tumor size at day 25 ([2]; single i.v. dose day 8): 0.3430 cm^3
- inhibition of tumor growth (in words) ([2]; single i.v. treatment, compared to control group, table 8, FIG. 2): significant inhibition of tumor growth
- body weight development (in words) ([3]; after single i.v. treatment, FIG. 1): Body weight loss
- Platelets × 10^6 at day 11 [3, 5]: 1500 ± 156 × 10^6
- WBC × 10^6 at day 11 [3, 5]: 4.80 ± 0.58 × 10^6
